Results: patent US20220193029A1, “BRYOSTATIN COMPOUNDS FOR ENHANCEMENT OF IMMUNOTHERAPY” (priority 2019, published 2022)

Key:
[1] = tested on: CD22 surface expression in NALM6 cells; test: CD22 surface expression assay by flow cytometry; format: cell-based, human; details: NALM6 cells; for fold induction at 0.001 µM: Homo sapiens, NALM-6, read-out: Fold increase CD22 expression; for fold induction at 0.001 µM / Fold increase CD22 expression: At 1 nM, relative to DMSO control
Description: Cell cultures were maintained between 4×10^5 and 3×10^6 cells/mL according to vendor instructions.
Cell suspension from a confluent T75 flask (Fisher) was transferred to a 15 mL falcon tube and centrifuged at 1100 rpm for 7 minutes. […] Cells were counted using a Countess II Automated Cell Counter (Fisher). […] 199 μL of this stock was added to 24 wells (enough for triplicate measurements for 8 different experimental conditions) in a 96-well plate. […] 1 μL of DMSO or the appropriate stock solution of compound in DMSO was added to each well. Cells were incubated for 24 hours, at which point the cell suspensions were transferred to 1.5 mL Eppendorf tubes and diluted with 1.0 mL of PBS (Hyclone, without Ca^2+ or Mg^2+). Samples were centrifuged at 2000 rpm for 5 min at RT. […] Cells were sub-cultured between 2×10^5 and 3×10^6 cells/mL in 24-well plates for an additional 24 hrs-7 days, at which point CD22 surface expression was assayed by flow cytometry.
Cells from one well were counted using a Countess II Automated Cell Counter (Fisher). ˜200,000-300,000 cells from each well were added to 1.5 mL Eppendorf tubes containing PBS (final volume ˜1.2 mL). The cell suspensions were centrifuged at 1500 rpm for 7 minutes at 4° C. The supernatant was aspirated, and the cell pellet was resuspended in 99 μL of pre-chilled FACS buffer (0.5% w/v BSA in PBS). […] Samples were then diluted with an additional 1.0 mL of FACS buffer and centrifuged at 1500 rpm for 7 minutes at 4° C. […] Cells were stained with DAPI and CD22 surface expression was analyzed using the FACScan Analyzer at the Stanford Shared FACS Facility. Data analysis was performed using FlowJo and Microsoft Excel.

[2] = tested on: PKCδ-GFP fusion protein; test: PKCδ-GFP translocation assay in living CHO-k1 cells (confocal microscopy); format: cell-based, Chinese hamster; details: for concentration* (minimum effective concentration required to induce translocation of PKC-GFP to the membrane) / % Translocation: CHO-k1 cells; for % Translocation: maximum translocation of PKCδ-GFP to the plasma membrane at the concentration printed in the same cell, SUW212: only brief translocation observed; for PKC translocation behavior / dynamics of PKC activation: time course, FIG. 6 panels C-D
Description: Because a prerequisite for PKC pathway involvement is binding to PKC, compounds were initially evaluated for PKC affinity in a cell-free competitive binding assay with tritiated phorbol dibutyrate ([^3H]-PDBu). Assays were performed with representative members of both the conventional (PKCα) and novel (PKCδ) PKC families. Subsequently, compounds were assayed for PKC activation in living cells using an isoform translocation assay.
Chinese hamster ovary factor K1 (CHO-k1, ATCC) cells were cultured in F-12 Kaighn's media (Hyclone, 10% fetal bovine serum, 1% penicillin/streptomycin added, referred to as F-12+/+ below) at 37° C. in an incubator (5% CO2). Cell cultures were maintained by splitting cells 1:3 when they reached ˜75-100% confluence (every 2-3 days) as follows:
1 mL of the cell suspension was then added to 9 mL of fresh F-12+/+ and the sample was sub-cultured until reaching confluence (˜2-3 days).
Cells were counted using a Countess II Automated Cell Counter (Fisher). The cell suspension was diluted to 240,000 cells/mL with fresh F-12+/+ and 2.5 mL of this diluted stock was added to one well in a 6-well plate. The cells were then cultured for 24 hours.
F-12+/+ was aspirated and cells were washed with F-12−/−. 2 mL of fresh F-12−/− was then added to each well, taking care not to disturb adherent cells. For each well of CHO-k1 cells, 12.5 μL Lipofectamine 2000 reagent (Invitrogen) was added to 250 μL Opti-MEM reduced serum media (Invitrogen) in a polypropylene tube and incubated for 20 minutes at RT. Meanwhile, for each well, 4 μg of PKCδ-GFP pDNA and 250 μL Opti-MEM reduced serum media was added to a separate polypropylene tube. 250 μL of the Lipofectamine 2000 suspension was added to the DNA suspension and the solution incubated for 30 minutes at RT. 500 μL of the Lipofectamine/DNA suspension was added to the respective wells of the 6-well plate. The cells were then incubated at 37° C. (5% CO2) for ˜24 hrs.
F-12+/+ was aspirated and cells were washed with F-12−/−. 2.4 mL of fresh F-12−/− was then added to each well, taking care not to disturb adherent cells. A 4 μg aliquot of PKCδ-GFP pDNA was added to PBS (pH 5.5, final volume 100 μL). 5.6 μL of DA 13:11 (2 mM stock in DMSO) was then added to the DNA solution, and the mixture was gently mixed (by flicking) for 20 seconds, at which point it was added directly to the respective wells of the 6-well plate. The cells were then incubated at 37° C. (5% C02) for ˜24 hrs.
After incubation, the media was aspirated and cells were washed with PBS (2.0 mL) and trypsinized (500 μL). The cell suspension was then diluted with 2.0 mL F-12+/+. 200 μL aliquots were added to 3 wells of a Lab-Tek II 4-well chambered coverglass slide (Fisher), producing 4 slides in total, each with three wells of cells. The cell suspension was directly diluted with 600 μL of additional F-12+/+. The resulting samples were incubated for ˜24 hrs. prior to imaging.
Fluorescent images were obtained using a Leica SP8 White Light Confocal microscope and the Leica AF software package. Prior to analysis, media was aspirated and 800 μL of PBS (Hyclone, without Ca^2+ or Mg^2+) supplemented with glucose (10 mM) was added to each well of the chambered coverglass slide. Bryostatin and bryostatin analogs were diluted to the appropriate concentration in 200 μL of 10 mM glucose in PBS. Cells were located for imaging and data was recorded for three wells in parallel, imaging at predetermined positions in each well using adaptive focus control. Cells were imaged at 30 second intervals following the addition of compound (set to t=0) for 20-40 minutes. Data were recorded at room temperature. Images were exported as .lif files and fluorescence intensity was analyzed using FIJI (NIH) software.

| SMILES | fold induction at 0.001 µM [1] | cytosolic PKC translocated ([2]; 1000 nM) [%] | concentration* (minimum effective concentration required to induce translocation of PKC-GFP to the membrane) [2] [nM] | % Translocation [2] [%] | PKC translocation behavior / dynamics of PKC activation [2] | Fold increase CD22 expression [1] [fold] | activity in the CD22 induction assay, in words ([1]; 1 nM or 10 nM, 24 hours) |
| --- | --- | --- | --- | --- | --- | --- | --- |
| CCCCCC#CC(=O)O[C@H]1/C(=C/C(=O)OC)C[C@H]2C[C@H]([C@@H](C)O)OC(=O)C[C@H](O)C[C@@H]3C[C@H](OC(C)=O)C(C)(C)[C@](O)(C[C@@H]4C[C@@](O)(CO)C[C@H](/C=C/C(C)(C)[C@]1(O)O2)O4)O3 [SUW203] | 1.16 | ~50 | 1000 | 50 | – | – | – |
| CCC/C=C/C=C/C(=O)O[C@H]1/C(=C/C(=O)OC)C[C@H]2C[C@H]([C@@H](C)O)OC(=O)C[C@H](O)C[C@@H]3C[C@H](OC(C)=O)C(C)(C)[C@](O)(C[C@@H]4C[C@H](OC(C)=O)C[C@H](/C=C/C(C)(C)[C@]1(O)O2)O4)O3 [SUW206] | 1.63 | – | 200 | 60 | almost identical behavior both to each other and to bryostatin 1 | – | – |
| CCC/C=C/C=C/C(=O)O[C@H]1/C(=C/C(=O)OC)C[C@H]2C[C@H]([C@@H](C)O)OC(=O)C[C@H](O)C[C@@H]3C[C@H](OC(C)=O)C(C)(C)[C@](O)(C[C@@H]4C[C@@H](OC(C)=O)C[C@H](/C=C/C(C)(C)[C@]1(O)O2)O4)O3 [SUW207] | 1.33 | – | 200 | 60 | almost identical behavior both to each other and to bryostatin 1 | – | – |
| CCCC=CC=CC(=O)OC1C(=CC(=O)OC)CC2CC(C(C)O)OC(=O)CC(O)CC3CC(OC(C)=O)C(C)(C)C(O)(CC4CC(=CC(=O)OCC)CC(C=CC(C)(C)C1(O)O2)O4)O3 (centres unmarked) [SUW217] | – | – | 200 | 75 | – | 1.97 | – |
| CCCC=CC=CC(=O)OC1C(=CC(=O)OC)CC2CC(C(C)O)OC(=O)CC(O)CC3CC(OC(C)=O)C(C)(C)C(O)(CC4CC(=CC(=O)OCC)CC(C=CC(C)(C)C1(O)O2)O4)O3 (centres unmarked) [SUW218] | – | – | 200 | 55 | more sustained linear activation dynamics | 1.92 | – |
| CCCCCCCC(=O)O[C@H]1/C(=C/C(=O)OC)C[C@H]2C[C@H]([C@@H](C)O)OC(=O)C[C@H](O)C[C@@H]3C[C@H](OC(C)=O)C(C)(C)[C@](O)(C[C@@H]4C[C@@H](C)C[C@H](/C=C/C(C)(C)[C@]1(O)O2)O4)O3 [SUW226] | 1.76 | – | 200 | 75 | – | – | – |
| C=CCOC(=O)/C=C1/C[C@H]2C[C@]3(O)O[C@H](C[C@@H](O)CC(=O)O[C@@H]([C@@H](C)O)C[C@@H]4C/C(=C\C(=O)OC)[C@H](OC(=O)/C=C/C=C/CCC)[C@@](O)(O4)C(C)(C)/C=C/[C@@H](C1)O2)C[C@H](OC(C)=O)C3(C)C [SUW229] | – | – | 200 | 50 | more sustained linear activation dynamics | – | top performer |
